Data on seven compounds can be found in US20250122190A1, “HALOGEN-SUBSTITUTED PYRIDAZINONE COMPOUND AND APPLICATION THEREOF” (MEDSHINE DISCOVERY INC., priority 2021, published 2025).

Data set [1] addresses T1, hTRPC5-T478C (Homo sapiens, UniProt Q9UL62).
T1 sequence (Q9UL62 1-973): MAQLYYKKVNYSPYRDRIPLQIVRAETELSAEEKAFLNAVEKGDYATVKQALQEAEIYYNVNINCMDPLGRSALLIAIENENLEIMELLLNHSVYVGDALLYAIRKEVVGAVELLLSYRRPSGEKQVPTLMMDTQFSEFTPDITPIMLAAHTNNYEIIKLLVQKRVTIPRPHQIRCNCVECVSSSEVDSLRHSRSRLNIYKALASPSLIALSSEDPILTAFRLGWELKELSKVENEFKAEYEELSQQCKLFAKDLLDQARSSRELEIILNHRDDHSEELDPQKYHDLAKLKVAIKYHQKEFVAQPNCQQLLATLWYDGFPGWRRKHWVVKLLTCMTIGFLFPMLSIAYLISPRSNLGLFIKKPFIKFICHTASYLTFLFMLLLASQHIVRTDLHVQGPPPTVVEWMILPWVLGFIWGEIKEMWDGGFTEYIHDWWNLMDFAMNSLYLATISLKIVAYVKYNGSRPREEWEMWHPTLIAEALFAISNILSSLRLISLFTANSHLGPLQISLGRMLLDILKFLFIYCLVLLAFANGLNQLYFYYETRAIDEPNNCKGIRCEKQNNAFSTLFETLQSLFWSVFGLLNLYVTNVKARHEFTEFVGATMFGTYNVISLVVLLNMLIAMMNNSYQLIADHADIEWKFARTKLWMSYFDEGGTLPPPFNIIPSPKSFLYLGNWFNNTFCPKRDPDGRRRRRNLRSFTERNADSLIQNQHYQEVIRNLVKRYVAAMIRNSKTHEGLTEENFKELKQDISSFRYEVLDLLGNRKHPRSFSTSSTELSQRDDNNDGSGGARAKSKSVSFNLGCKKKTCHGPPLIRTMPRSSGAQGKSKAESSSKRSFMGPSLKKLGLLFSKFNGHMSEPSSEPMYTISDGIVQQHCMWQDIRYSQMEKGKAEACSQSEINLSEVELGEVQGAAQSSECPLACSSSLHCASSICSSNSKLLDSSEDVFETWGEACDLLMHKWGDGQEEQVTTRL
Kind of data set: hTRPC5-T478C FLIPR calcium flux IC50 assay. Type of data set: cell-based. The settings on record: hTRPC5-T478C-HEK cells, Englerin A as channel agonist. Here is the method: Cell culture: hTRPC5-T478C-HEK cells were cultured in a humid environment in 5% CO2 at 37° C.
Cell culture medium ingredients: • DMEM, Supplier: Gibco, Catalog No. 11965-092; • FBS, Supplier: Gibco, Catalog No. 10099-141C, Concentration: 10%; • Pen/Strep, Supplier: Invitrogen, Catalog No. 15140-122, Concentration: 1%; • Zeocin, Supplier: Invitrogen, Catalog No. R25005, Concentration: 200 μg/mL; • Blasticidin S, Supplier: Invitrogen, Catalog No. R21001, Concentration: 5 μg/mL.
In general, the TRPC5-T478C cell line was passaged three times weekly. The dilution factor for each passage was 1:3. Once the cells reached about 80% confluence in the T-75 flask, the cell line was digested with trypsin for about 1 minute and the cell suspension was removed from the flask with a pipette. Depending on the dilution ratio, the removed cell suspension would be transferred to another T-75 flask containing cell culture medium. Note that in order to maintain the logarithmic growth of the cells, the confluence of the cells should be maintained at the subconfluent stage and the cells should be passaged once every 2 to 3 days depending on the proliferation rate of the cell line.
(1) Preparation of cell plate: the cells were separated according to the above-mentioned passaging and the cell density and viability were determined using a cell counter. The volume of the cell suspension was adjusted with a cell culture medium. After the density reached to the plating density, 1 μg/mL tetracycline was added to induce hTRPC5-T478C channel expression. The induced hTRPC5-T478C cells were then seeded onto poly-D-lysine (PDL)-coated 384-well plates at a density of 20000 cells/well (30 μL/well). Then the cells were cultured overnight in a cell culture incubator.
(2) Preparation of compound plate: the compounds were generally diluted with DMSO, prepared into a mother liquor and stored in a −20° C. refrigerator. A compound plating program was set on the ECHO processor, and the compounds were plated with ECHO according to the concentration gradient that was already set. In general, 9 concentrations were included with the highest concentration at 10 μM, 3-fold dilution, and 2 replicate wells. Englerin A was used as the channel agonist.
(3) On-machine testing: the cell plates and compound plates were prepared according to the above-mentioned methods. After the cell confluence of the cell plate reached 80%-90%, the cells were removed from the incubator and the testing started. Ca5 dye (Molecular Devices #R8185) was formulated with test buffer. After the cell plate culture medium was removed with Bravo, 25 μL of Ca5 dye was added to each well, and the plate was incubated for 1 hour. After 1 hour, the cell plate and compound plate were placed in FLIPR^TETRA (Molecular Devices, USA) for FLIPR detection.
Data analysis was performed using Excel 2013 (Microsoft, USA) software and GraphPad Prism 6.01 software. The maximum signal was generated by FLIPR software. Data analysis was performed using Excel (2013) and Prism 6.01. Data quality and data stability were controlled using S/B>2.50 and Z factor>0.50. The calculation formula was as follows: S/B=Avg100%/Avg0%; Z factor=1−(3*SD100%+3*SDO %)/|Avg100%-Avg0%.

Data set [2] is described as follows: In vivo PK studies, intravenous injection. The settings on record: rat, plasma, male SD rats; for Vd: read-out: Vdss. How it is done: Male SD rats were used as test animals. After intravenous injection, the blood drug concentration of the compounds was determined and the pharmacokinetic behavior was evaluated.
Three healthy adult male SD rats were selected. The test compounds were mixed with an appropriate amount of a vehicle of the intravenous injection group and prepared into a 0.5 or 1 mg/mL clear solution, which was filtered with a […] microporous filter membrane for later use. After intravenous administration to the rats at 0.5 or 1 mg/kg, whole blood was collected at 0.083, 0.25, 0.5, 1, 2, 4, 8, 24 hours after administration and placed in EDTA-K2 anticoagulant tubes, and the mixture was vortexed thoroughly and centrifuged at 3200 g, 4° C. for 10 minutes to obtain the plasma. The LC-MS/MS method was used to determine the drug concentration, and the Phoenix WinNonlin 6.3 pharmacokinetic software was used to calculate the relevant pharmacokinetic parameters by the non-compartmental model linear logarithmic trapezoidal method. • Vehicle 1:10% DMSO/10% Kolliphor® HS 15/80% (20% sulfobutyl-β-cyclodextrin); • Vehicle 2:10% DMSO+20% polyoxyethylenated castor oil+70% water; • Vehicle 3:5% DMSO+10% Kolliphor® HS 15+85% physiological saline; • Vehicle 4:10% DMSO+60% polyethylene glycol 400+30% (10% aqueous hydroxypropyl-β-cyclodextrin solution).

Molecules are shown by their SMILES. Like-named read-outs stand apart in the source and are kept apart here.

The term IC50 denotes the concentration that gives 50% inhibition. A word on the AUC(0-t): it is the area under the concentration-time curve up to a stated or last time point. What is called clearance is the rate of elimination divided by the concentration. Low values mean inefficient removal, high ones efficient removal. A word on the half-life: it is how long it takes for the measured level to halve. A higher half-life goes with slow loss. On to `O=c1[nH]ncc(N2CCc3c(ncnc3Sc3ccc(F)cc3C(F)(F)F)C2)c1Cl` [Compound WX002], for which the IC50 in data set [1] was found to be 27 nM. Besides, in data set [2] (1 mg/kg, 1 mpk), the AUC(0-t) turned out to be 1.97 µM·h, the clearance was found to be 18.2 mL/min/kg, the half-life was 1.83 h and the Vd is 2.28 L/kg.

Turning to `O=c1[nH]ncc(N2CCc3c(ncnc3Oc3ccc(F)cc3Br)C2)c1Cl` [Compound WX004], in data set [1], the IC50 turned out to be 40 nM. In addition, in data set [2] (1 mg/kg, 1 mpk), the AUC(0-t) came out at 8.26 µM·h, the clearance was found to be 4.6 mL/min/kg, the half-life was 2.02 h and the Vd amounted to 0.77 L/kg.

In the case of `O=c1[nH]ncc(N2CCc3c(ncnc3Oc3ccc(F)cc3C(F)(F)F)C2)c1Br` [Compound WX009], the concentration for half-maximal inhibition (IC50) in data set [1] amounted to 37 nM. Also, in data set [2] (0.5 mg/kg, 0.5 mpk), the AUC(0-t) was found to be 2.38 µM·h, the clearance stood at 6.52 mL/min/kg, the half-life is 2.59 h and the Vd came to 1.37 L/kg.

In the case of `CC(F)(F)c1cc(F)ccc1Oc1ncnc2c1CCN(c1cn[nH]c(=O)c1Cl)C2` [Compound WX010], the 50% inhibitory concentration (IC50) in data set [1] amounted to 71 nM. In data set [2] (1 mg/kg, 1 mpk), the AUC(0-t) worked out at 4.75 µM·h, the clearance turned out to be 7.81 mL/min/kg, the half-life was 1.73 h and the Vd amounted to 1.13 L/kg.

Turning to `COCc1nc2c(c(Oc3ccc(F)cc3C(F)(F)F)n1)CCN(c1cn[nH]c(=O)c1Cl)C2` [Compound WX011], the IC50 in data set [1] worked out at 80 nM. Moreover, in data set [2] (1 mg/kg, 1 mpk), the AUC(0-t) turned out to be 4.05 µM·h, the clearance was 8.29 mL/min/kg, the half-life is 1.46 h and the Vd was 1.06 L/kg.

Turning to `O=c1[nH]ncc(N2CCc3c(nc(CO)nc3Sc3ccc(F)cc3C(F)(F)F)C2)c1Cl` [Compound WX012], the IC50 in data set [1] is 24 nM. In addition, in data set [2] (1 mg/kg, 1 mpk), the area under the curve AUC(0-t) is 3.33 µM·h, the clearance came out at 10.1 mL/min/kg, the half-life was 2.31 h and the Vd was found to be 1.62 L/kg.

Regarding `Nc1nc2c(c(Sc3ccc(F)cc3C(F)(F)F)n1)CCN(c1cn[nH]c(=O)c1Cl)C2` [Compound WX013], the IC50 in data set [1] is 55.7 nM. Moreover, in data set [2] (1 mg/kg, 1 mpk), the AUC(0-t) came out at 9.13 µM·h, the clearance was determined as 3.94 mL/min/kg, the half-life is 2.65 h and the Vd came to 0.88 L/kg.
